From patent EP4361137A1, “PRUNE1 INHIBITORS AND THERAPEUTIC USE THEREOF” (CEINGE Biotecnologie Avanzate Franco Salvatore s.c. a r.l., priority 2022, dated 2024) come the findings set out here.

Structures are written as SMILES.

The subject of assay [1] is murine PRUNE1. Kind of assay: qPCR of PRUNE1 mRNA in MATH1-Prune1/TP53-/- cells. Format: cell-based. The settings on record: 10 µM, 24 hours, relative to vehicle. The protocol: (§1) RNA samples were extracted using TRIzol RNA Isolation Reagent (15596026, Invitrogen), according to the manufacturer instructions. Reverse transcription was performed with 5× All-In-One RT MasterMix (g592; ABM), according to the manufacturer instructions. The reverse transcription products (cDNA) were amplified by qRT-PCR using an RT-PCR system (7900; Applied Biosystems, Foster City, CA, USA). The cDNA preparation was through the cycling method, by incubating the complete reaction mix as follows: cDNA reactions: (37 °C for 10 min and 60 °C for 15 min); Heat-inactivation: 95 °C for 3 min; Hold stage: 4 °C. The targets were detected with the SYBR green approach, using BrightGreen BlasTaq 2× PCR MasterMix (G895; ABM). Human ACTB was used as the housekeeping gene to normalize the quantification cycle (Cq) values of the other genes. These runs were performed on a PCR machine (Quantstudio5, Lifetechnologies) with the following thermal protocol: Hold stage: 50 °C for 2 min; Denaturation Step: 95 °C for 10 min; Denaturation and annealing (×45 cycles): 95 °C for 15 s and 60 °C for 60 s; Melt curve stage: 95 °C for 15 s, 60 °C for 1 min, and 95 °C for 15 s. Relative expression of the target genes was determined using the 2^-ΔΔCq method, as the fold increase compared with the controls. The data are presented as means ±SD of the 2^-ΔΔCq values (normalized to human ACTB) of three replicates.

The subject of assay [2] is human PRUNE1. Nature of the assay: qPCR of PRUNE1 mRNA in MATH1-Prune1/TP53-/- cells. The following applies: 10 µM, 24 hours, relative to vehicle. Type of assay: cell-based. As for the experimental part:
as §1
On the technique in general: Quantitative PCR measures a nucleic acid by following its amplification.

Assay [3] relates to Prune1. Nature of the assay: Immunoblotting of Prune1 in MMTV-Prune1/Wnt1 cells. Type of assay: cell-based, human and murine. The following applies: dose of 10 mM. As for the experimental part:
(§2) D425.MED and MMTV-Prune1/Wnt1 cells were plated and treated with increasing concentrations of LEO-AA7.5(S)T for 24 hours. Water-treated cells were used as negative control for the experiments.
(§3) Cells for immunoblotting analysis were washed in cold PBS and lysed in cell lysis buffer [20 mM sodium phosphate (pH 7.4), 150 mM NaCl, 10% (v/v) glycerol, 1% (w/v) sodium deoxycholate, 1% (v/v) Triton X-100] supplemented with protease inhibitors (Roche). The resulting cell lysates were cleared by centrifugation at 16,200g for 10 min at room temperature, and the supernatants were re- moved and assayed for protein concentrations with the Protein Assay Dye Reagent (Bio-Rad). The cell lysates (30 µg) were resolved by SDS-polyacrylamide gel electrophoresis (SDS-PAGE) gels of different percentages, which depended on the molecular weights of the proteins of interest. The proteins were then electrophoretically transferred to polyvinylidene difluoride (PVDF) membranes (Millipore). After 1 hour in blocking solution with 5% (w/v) dry milk fat in PBS or 5% (w/v) BSA (Sigma-Aldrich) in tris-buffered saline [both of which contained 0.02% (v/v) Tween 20] […] The peak areas of the bands were measured on the densitometry plots, and the relative proportions (percentages) were calculated. […]
A general note: In western blotting, separated proteins are transferred to a membrane and probed.

For assay [4], the system named is inflammatory cytokines targeted by IMIDs drugs. Nature of the assay: qPCR of inflammatory cytokines in MATH1-Prune1/TP53-/- cells. Format: cell-based, murine. The settings on record: 10 µM, 24 hours. The protocol:
as §1

Assay [5] concerns MMTV-Prune1/Wnt1 cells. Kind of assay: Real-time cell proliferation assay (cell index, xCELLigence). The settings on record: 10 µM and 100 µM, dose dependent. Type of assay: cell-based, murine. As for the experimental part: as §2
Cellular proliferation rates were determined with the xCELLigence system (Roche). D425-MED, MATH-Prune1/TP53-/- and MMTV-Prune1/Wnt1 cells (8 × 10^3) were treated with increasing concentrations of LEO-AA7.5(S)T, harvested, and then added to a single well of an xCELLigence E-plate 16. The proliferation rates were determined at 2-min intervals by measuring the impedance changes across the electrodes at the bottoms of the wells. These cell index values were calculated by the xCELLigence RTCA software. with vehicle-treated cells were the negative control. Impedance was measured every 2 min over 24 hours. The IC50 values were calculated through nonlinear regression analysis performed with Graph Pad Prism 9 ([inhibitor] vs. response (three parameters). Data are means ± SD of three independent experiments.

Assay [6] deals with human and murine Prune1. Kind of assay: Immunoblotting of MATH1-Prune1/TP53-/- cells. Format: cell-based. The following applies: 10 µM, 24 hours. As for the experimental part: as §3, with “20] (TBS-Tween), the PVDF mem- branes were incubated with the required primary antibody overnight at 4°C: anti-PRUNE1 (1:250; Ferrucci et al., 2018), or anti- β-actin (1:10,000; A5441, Sigma-Aldrich).” for “20]”

Assay [7] has as its system Caspase 3. Kind of assay: Caspase 3 activity assay. Type of assay: cell-based, murine. The settings on record: MATH1-Prune1/TP53-/- cells. The protocol: MATH1-Prune1/TP53-/- cells (3×10^4) were plated in 96-well plate and treated with different doses of Vincristine (i.e., 0.3 nM or 0.03 nM) alone or combined to 10 µM LEO-AA7.5(S)T. Vehicle- (0.01% DMSO) treated cells were used as negative controls. Staurosporine-treated cells (1 µM) were used as positive controls of the assays. The assay was performed by using Caspase-3 Activity Assay Kit (#5723, Cell Signaling), by following the manufacture's instruction. Briefly, after 24 hours from the treatment started, cell medium was removed and 30 ul of cell lysis buffer (PI-7018, Cell Signaling) were added. The plate was then incubated for 5 minutes on ice. Later, 25 ul of cell lysate were mixed with 200 ul substrate solution B (#11734S, Cell Signaling) in a black 96 well plate. Fluorescence was detected by using a multimode plate reader (Enspire, 2300, PerkinElmer). The positive control AMC (25 µl, #11735S, Cell Signaling) mixed with 200 ul 1X assay buffer A (#11736S, Cell Signaling) was used as positive control of fluorescence.

Regarding `COc1ccc(CNc2ncnc(N3CCC[C@H](CO)C3)n2)cc1.Cl` [LEO-AA7.5(S)T, (S)-(1-(4-((4-methoxybenzyl)amino)-1,3,5-triazin-2-yl)piperidin-3-yl)methanol HCl salt], the “murine endogenous Prune1 mRNA” value in assay [1] turned out to be 0.4 fold. For the same molecule, the “human endogenous Prune1 mRNA” value in assay [2] stood at 0.15 fold. Also, in assay [3], the “degradation of human and murine Prune protein” value is listed as “enhance the degradation”. Besides, in assay [4], the “levels of inflammatory cytokines targeted by IMIDs drugs (qPCR)” value was “decreased levels”. The proliferation rate result in assay [5] is “reduction”. Further, in assay [6], the “human and murine Prune1 levels (immunoblotting)” value is “reduced human and murine Prune1 levels”; the “nuclear phosphorylated SMAD2 and OTX2 (immunoblotting)” value was “inhibition”. In addition, in assay [7] (10 µM plus 0.03 nM Vincristine), the “Caspase 3 activation, combination with Vincristine” value is on record as “promotes Caspase 3 activation”. For the same molecule, the “Caspase 3 activation, single agent” value in assay [7] (Vincristine 0.3 nM and 0.03 nM, LEO-AA7.5(S)T 10 µM, 24 hours) is reported as “does not induce apoptotic action”.
